Laboratory results: patent US6703347B2, “Isothiazole derivatives and their use as pesticides” (Syngenta Limited, priority 2000, dated 2004)

Legend:
[1] = tested on: fruit flies (Drosophila melanogaster); assay: pesticidal test against fruit flies; settings: liquid composition containing 500 ppm by weight of compound
Protocol: (§1) The activities of individual compounds of formula (I) were determined using a variety of pests. The pests were treated with a liquid composition containing 500 parts per million (ppm) by weight of a compound of formula (I). Each composition was made by dissolving the compound in an acetone and ethanol (50:50 by volume) mixture and diluting the solution with water containing 0.05% by volume of a wetting agent, SYNPERONIC NP8, until the liquid composition contained the required concentration of the compound.
(§2) The test procedure adopted with regard to each pest was essentially the same and comprised supporting a number of the pests on a medium, which was usually a substrate, a host plant or a foodstuff on which the pests feed, and treating either or both the medium and the pests with a composition. Pest mortality was assessed usually between two and five days after treatment.
(§3) Similar tests were conducted against, independently, two-spotted spider mites (Tetranychus urticae), fruit flies (Drosophila melanogaster), tobacco budworms (Heliothis virescens), diamond back moth (Plutella xylostella) and corn root worm (Diabrotica balteata).

[2] = tested on: corn root worm (Diabrotica balteata); assay: pesticidal test against corn root worm; settings: liquid composition containing 500 ppm by weight of compound
Protocol: as §1, §2, §3

[3] = tested on: peach potato aphids (Myzus persicae); settings: 500 ppm by weight; infested Chinese cabbage leaves sprayed; mortality assessed after three days
Protocol: This Example illustrates the pesticidal/insecticidal properties of compounds of formula (I). The activities of individual compounds of formula (I) were determined using a variety of pests. The pests were treated with a liquid composition containing 500 parts per million (ppm) by weight of a compound of formula (I). Each composition was made by dissolving the compound in an acetone and ethanol (50:50 by volume) mixture and diluting the solution with water containing 0.05% by volume of a wetting agent, SYNPERONIC NP8, until the liquid composition contained the required concentration of the compound.
as §2
In each test against peach potato aphids (Myzus persicae), Chinese cabbage leaves were infested with aphids, the infested leaves were sprayed with a test composition and pest mortality was assessed after three days.

[4] = tested on: diamond back moth (Plutella xylostella); assay: pesticidal test against diamond back moth; settings: liquid composition containing 500 ppm by weight of compound
Protocol: as §1, §2, §3

[5] = tested on: tobacco budworms (Heliothis virescens); assay: pesticidal test against tobacco budworms; settings: liquid composition containing 500 ppm by weight of compound
Protocol: as §1, §2, §3

Compound: CCOCN(C(=O)C(C)c1ccc2oc(C(F)(F)C(F)(F)F)nc2c1)c1snc(CC)c1Cl (stereo not drawn) [Table 1 Compound 159]
- mortality (score) Dm [1]: 9 (9 indicates 80-100% mortality)
- mortality (score) Db [2]: 9 (9 indicates 80-100% mortality)
- mortality (score) Mp [3]: 9 (9 indicates 80-100% mortality)
- mortality (score) Px [4]: 9 (9 indicates 80-100% mortality)

Compound: CCC(C(=O)Nc1snc(C)c1Cl)c1ccc2oc(C(F)(F)C(F)(F)C(F)(F)F)nc2c1 (stereo not drawn) [Table 2 Compound 10]
- mortality (score) Dm [1]: 0 (represents less than 40% mortality)
- mortality (score) Db [2]: 9 (9 indicates 80-100% mortality)
- mortality (score) Mp [3]: 5 (5 indicates 40-79% mortality)
- mortality (score) Hv [5]: 9 (9 indicates 80-100% mortality)

Compound: CCOCN(C(=O)C(C)c1ccc2oc(C(F)(F)C(F)(F)C(F)(F)F)nc2c1)c1snc(C)c1Cl (stereo not drawn) [Table 1 Compound 80]
- mortality (score) Dm [1]: 0 (represents less than 40% mortality)
- mortality (score) Db [2]: 9 (9 indicates 80-100% mortality)
- mortality (score) Mp [3]: 5 (5 indicates 40-79% mortality)
- mortality (score) Px [4]: 9 (9 indicates 80-100% mortality)
- mortality (score) Hv [5]: 9 (9 indicates 80-100% mortality)

Compound: CCOCN(C(=O)C(C)c1ccc2oc(CC(C)C)nc2c1)c1snc(C)c1Cl (stereo not drawn) [Table 1 Compound 76]
- mortality (score) Dm [1]: 9 (9 indicates 80-100% mortality)
- mortality (score) Db [2]: 9 (9 indicates 80-100% mortality)
- mortality (score) Mp [3]: 9 (9 indicates 80-100% mortality)
- mortality (score) Px [4]: 9 (9 indicates 80-100% mortality)
- mortality (score) Hv [5]: 5 (5 indicates 40-79% mortality)

Compound: CCc1nsc(NC(=O)C(C)c2ccc3oc(CC(C)(C)C)nc3c2)c1Cl (stereo not drawn) [Table 1 Compound 87]
- mortality (score) Dm [1]: 9 (9 indicates 80-100% mortality)
- mortality (score) Db [2]: 9 (9 indicates 80-100% mortality)
- mortality (score) Mp [3]: 9 (9 indicates 80-100% mortality)
- mortality (score) Px [4]: 9 (9 indicates 80-100% mortality)

Compound: CCc1nsc(NC(=O)C(C)c2ccc3oc(C(F)(F)C(F)(F)C(F)(F)F)nc3c2)c1Cl (stereo not drawn) [Table 1 Compound 90]
- mortality (score) Dm [1]: 0 (represents less than 40% mortality)
- mortality (score) Db [2]: 9 (9 indicates 80-100% mortality)
- mortality (score) Mp [3]: 0 (represents less than 40% mortality)
- mortality (score) Px [4]: 9 (9 indicates 80-100% mortality)

Compound: CCc1nsc(NC(=O)C(C)c2ccc3oc(CC(C)C)nc3c2)c1Cl (stereo not drawn) [Table 1 Compound 86]
- mortality (score) Dm [1]: 9 (9 indicates 80-100% mortality)
- mortality (score) Db [2]: 9 (9 indicates 80-100% mortality)
- mortality (score) Mp [3]: 9 (9 indicates 80-100% mortality)
- mortality (score) Px [4]: 9 (9 indicates 80-100% mortality)

Compound: CCOCN(C(=O)C(F)c1ccc2oc(C(F)(F)C(F)(F)C(F)(F)F)nc2c1)c1snc(CC)c1Cl (stereo not drawn) [Table 5 Compound 160]
- mortality (score) Dm [1]: 0 (represents less than 40% mortality)
- mortality (score) Db [2]: 9 (9 indicates 80-100% mortality)
- mortality (score) Mp [3]: 9 (9 indicates 80-100% mortality)
- mortality (score) Px [4]: 9 (9 indicates 80-100% mortality)

Compound: CCOCN(C(=O)C(C)c1ccc2sc(CC(C)(C)C)nc2c1)c1snc(CC)c1Cl (stereo not drawn) [Table 39 Compound 157]
- mortality (score) Dm [1]: 0 (represents less than 40% mortality)
- mortality (score) Db [2]: 9 (9 indicates 80-100% mortality)
- mortality (score) Mp [3]: 9 (9 indicates 80-100% mortality)
- mortality (score) Px [4]: 9 (9 indicates 80-100% mortality)
- mortality (score) Hv [5]: 9 (9 indicates 80-100% mortality)

Compound: CCc1nsc(NC(=O)C(F)c2ccc3oc(CC(C)C)nc3c2)c1Cl (stereo not drawn) [Table 5 Compound 86]
- mortality (score) Dm [1]: 9 (9 indicates 80-100% mortality)
- mortality (score) Mp [3]: 9 (9 indicates 80-100% mortality)
- mortality (score) Px [4]: 9 (9 indicates 80-100% mortality)
- mortality (score) Hv [5]: 9 (9 indicates 80-100% mortality)

Compound: Cc1nsc(NC(=O)C(C)c2ccc3oc(CC(C)C)nc3c2)c1Cl (stereo not drawn) [Table 1 Compound 6]
- mortality (score) Dm [1]: 0 (represents less than 40% mortality)
- mortality (score) Db [2]: 9 (9 indicates 80-100% mortality)
- mortality (score) Mp [3]: 0 (represents less than 40% mortality)
- mortality (score) Px [4]: 9 (9 indicates 80-100% mortality)

Compound: CCOCN(C(=O)C(C)c1ccc2oc(CC(C)C)nc2c1)c1snc(CC)c1Cl (stereo not drawn) [Table 1 Compound 156]
- mortality (score) Mp [3]: 9 (9 indicates 80-100% mortality)

Compound: CCOCN(C(=O)C(F)c1ccc2oc(CC(C)(C)C)nc2c1)c1snc(C)c1Cl (stereo not drawn) [Table 5 Compound 77]
- mortality (score) Dm [1]: 0 (represents less than 40% mortality)
- mortality (score) Db [2]: 9 (9 indicates 80-100% mortality)
- mortality (score) Mp [3]: 9 (9 indicates 80-100% mortality)
- mortality (score) Px [4]: 9 (9 indicates 80-100% mortality)
- mortality (score) Hv [5]: 5 (5 indicates 40-79% mortality)

Compound: CCOCN(C(=O)C(C)c1ccc2oc(CC(C)(C)C)nc2c1)c1snc(C)c1Cl (stereo not drawn) [Table 1 Compound 77]
- mortality (score) Dm [1]: 0 (represents less than 40% mortality)
- mortality (score) Db [2]: 9 (9 indicates 80-100% mortality)
- mortality (score) Mp [3]: 9 (9 indicates 80-100% mortality)
- mortality (score) Px [4]: 9 (9 indicates 80-100% mortality)
- mortality (score) Hv [5]: 9 (9 indicates 80-100% mortality)

Compound: CCc1nsc(NC(=O)C(CC)c2ccc3oc(C(F)(F)C(F)(F)C(F)(F)F)nc3c2)c1Cl (stereo not drawn) [Table 2 Compound 90]
- mortality (score) Dm [1]: 0 (represents less than 40% mortality)
- mortality (score) Db [2]: 0 (represents less than 40% mortality)
- mortality (score) Mp [3]: 0 (represents less than 40% mortality)
- mortality (score) Hv [5]: 9 (9 indicates 80-100% mortality)

Compound: Cc1nsc(NC(=O)C(F)c2ccc3sc(CC(C)(C)C)nc3c2)c1Cl (stereo not drawn) [Table 42 Compound 7]
- mortality (score) Dm [1]: 9 (9 indicates 80-100% mortality)
- mortality (score) Db [2]: 9 (9 indicates 80-100% mortality)
- mortality (score) Mp [3]: 9 (9 indicates 80-100% mortality)
- mortality (score) Px [4]: 5 (5 indicates 40-79% mortality)
- mortality (score) Hv [5]: 9 (9 indicates 80-100% mortality)

Compound: Cc1nsc(NC(=O)C(F)c2ccc3oc(C(F)(F)C(F)(F)C(F)(F)F)nc3c2)c1Cl (stereo not drawn) [Table 5 Compound 10]
- mortality (score) Dm [1]: 9 (9 indicates 80-100% mortality)
- mortality (score) Db [2]: 9 (9 indicates 80-100% mortality)
- mortality (score) Mp [3]: 9 (9 indicates 80-100% mortality)
- mortality (score) Px [4]: 9 (9 indicates 80-100% mortality)
- mortality (score) Hv [5]: 9 (9 indicates 80-100% mortality)

Compound: CCc1nsc(NC(=O)C(C)c2ccc3oc(C)nc3c2)c1Cl (stereo not drawn) [Table 1 Compound 81]
- mortality (score) Dm [1]: 9 (9 indicates 80-100% mortality)
- mortality (score) Db [2]: 9 (9 indicates 80-100% mortality)
- mortality (score) Mp [3]: 9 (9 indicates 80-100% mortality)
- mortality (score) Px [4]: 9 (9 indicates 80-100% mortality)

Compound: CCOCN(C(=O)C(C)c1ccc2oc(C(F)(F)C(F)(F)C(F)(F)F)nc2c1)c1snc(CC)c1Cl (stereo not drawn) [Table 1 Compound 160]
- mortality (score) Dm [1]: 9 (9 indicates 80-100% mortality)
- mortality (score) Db [2]: 9 (9 indicates 80-100% mortality)
- mortality (score) Mp [3]: 9 (9 indicates 80-100% mortality)
- mortality (score) Px [4]: 9 (9 indicates 80-100% mortality)

Compound: CCOCN(C(=O)C(C)c1ccc2sc(CC(C)C)nc2c1)c1snc(CC)c1Cl (stereo not drawn) [Table 39 Compound 156]
- mortality (score) Dm [1]: 0 (represents less than 40% mortality)
- mortality (score) Mp [3]: 9 (9 indicates 80-100% mortality)
- mortality (score) Px [4]: 9 (9 indicates 80-100% mortality)
- mortality (score) Hv [5]: 9 (9 indicates 80-100% mortality)

Compound: CCc1nsc(NC(=O)C(F)c2ccc3oc(C(F)(F)C(F)(F)C(F)(F)F)nc3c2)c1Cl (stereo not drawn) [Table 5 Compound 90]
- mortality (score) Dm [1]: 9 (9 indicates 80-100% mortality)
- mortality (score) Db [2]: 9 (9 indicates 80-100% mortality)
- mortality (score) Mp [3]: 9 (9 indicates 80-100% mortality)
- mortality (score) Px [4]: 9 (9 indicates 80-100% mortality)

Compound: CCc1nsc(NC(=O)C(C)c2ccc3oc(CC(F)(F)F)nc3c2)c1Cl (stereo not drawn) [Table 1 Compound 88]
- mortality (score) Dm [1]: 0 (represents less than 40% mortality)
- mortality (score) Db [2]: 9 (9 indicates 80-100% mortality)
- mortality (score) Mp [3]: 9 (9 indicates 80-100% mortality)
- mortality (score) Px [4]: 9 (9 indicates 80-100% mortality)

Compound: CCOCN(C(=O)CCc1ccc2oc(CC(C)(C)C)nc2c1)c1snc(C)c1Cl [Table 82 Compound 77]
- mortality (score) Dm [1]: 0 (represents less than 40% mortality)
- mortality (score) Mp [3]: 9 (9 indicates 80-100% mortality)
- mortality (score) Px [4]: 0 (represents less than 40% mortality)
- mortality (score) Hv [5]: 0 (represents less than 40% mortality)

Compound: CCc1nsc(NC(=O)C(F)c2ccc3sc(CC(C)(C)C)nc3c2)c1Cl (stereo not drawn) [Table 42 Compound 87]
- mortality (score) Dm [1]: 9 (9 indicates 80-100% mortality)
- mortality (score) Db [2]: 9 (9 indicates 80-100% mortality)
- mortality (score) Mp [3]: 9 (9 indicates 80-100% mortality)
- mortality (score) Px [4]: 9 (9 indicates 80-100% mortality)
- mortality (score) Hv [5]: 9 (9 indicates 80-100% mortality)

Compound: CCc1nsc(NC(=O)C(F)c2ccc3oc(CC(C)(C)C)nc3c2)c1Cl (stereo not drawn) [Table 5 Compound 87]
- mortality (score) Dm [1]: 9 (9 indicates 80-100% mortality)
- mortality (score) Mp [3]: 9 (9 indicates 80-100% mortality)
- mortality (score) Px [4]: 9 (9 indicates 80-100% mortality)
- mortality (score) Hv [5]: 9 (9 indicates 80-100% mortality)

Compound: CCOCN(C(=O)C(C)c1ccc2oc(CC(F)(F)F)nc2c1)c1snc(C)c1Cl (stereo not drawn) [Table 1 Compound 78]
- mortality (score) Dm [1]: 9 (9 indicates 80-100% mortality)
- mortality (score) Db [2]: 9 (9 indicates 80-100% mortality)
- mortality (score) Mp [3]: 9 (9 indicates 80-100% mortality)
- mortality (score) Px [4]: 9 (9 indicates 80-100% mortality)
- mortality (score) Hv [5]: 9 (9 indicates 80-100% mortality)

Compound: Cc1nsc(NC(=O)C(F)c2ccc3oc(CC(C)C)nc3c2)c1Cl (stereo not drawn) [Table 5 Compound 6]
- mortality (score) Dm [1]: 9 (9 indicates 80-100% mortality)
- mortality (score) Db [2]: 9 (9 indicates 80-100% mortality)
- mortality (score) Mp [3]: 9 (9 indicates 80-100% mortality)
- mortality (score) Px [4]: 9 (9 indicates 80-100% mortality)
